In patent US20240041991A1, “STABLE LIQUID DISPERSINB COMPOSITIONS” (KANE BIOTECH INC., priority 2020, published 2024):
Read-outs that look alike come from different tables or passages of the source. Marks after values point to notes of the source that are not given here.

Test system: DispersinB
Assay type: biochemical, Aggregatibacter actinomycetemcomitans
Conditions: polyol % as in label
Experimental: Samples from each formula was incubated at 3 different temperatures (42° C., 52° C. and 62° C.) for 3 hours. Following a 3 hour incubation, the samples were brought to room temperature for enzymatic activity assay.
Two-tailed paired T-test was performed by to compare each polyol containing treatment with the treatment devoid of polyol. Treatment with probability values (p) less than 5% (0.05) was considered significant.

`OC[C@@H](O)[C@@H](O)CO` [Erythritol, (2R,3S)-Butane-1,2,3,4-tetrol] was tested, and the “% enzymatic activity of DispersinB (Mean)” value (from here on “% enzymatic activity”) (4° C., freshly made control without polyol = 100%, listed as 1% Erythritol) was 105%, the “% enzymatic activity” value (4° C., freshly made control without polyol = 100%, listed as 2.5% Erythritol) was 97% and the “% enzymatic activity” value (4° C., freshly made control without polyol = 100%, listed as 5% Erythritol) was 101%. For the same molecule, the “% enzymatic activity” value (4° C., freshly made control without polyol = 100%, listed as 10% Erythritol) was 97%, the “% enzymatic activity” value (4° C., freshly made control without polyol = 100%, listed as 15% Erythritol) was 96% and the “% enzymatic activity” value (4° C., freshly made control without polyol = 100%, listed as 20% Erythritol) was 104%. For the same molecule, the “% enzymatic activity” value (4° C., freshly made control without polyol = 100%, listed as 25% Erythritol) was 109%, the “% enzymatic activity” value (42° C. for 3 hours, control without polyol = 100%, listed as 1% Erythritol) was 109* % and the “% enzymatic activity” value (42° C. for 3 hours, control without polyol = 100%, listed as 2.5% Erythritol) was 107* %. For the same molecule, the “% enzymatic activity” value (42° C. for 3 hours, control without polyol = 100%, listed as 5% Erythritol) was 106* %, the “% enzymatic activity” value (42° C. for 3 hours, control without polyol = 100%, listed as 10% Erythritol) was 107* % and the “% enzymatic activity” value (42° C. for 3 hours, control without polyol = 100%, listed as 15% Erythritol) was 119* %. The “% enzymatic activity” value (42° C. for 3 hours, control without polyol = 100%, listed as 20% Erythritol) was 113* %, the “% enzymatic activity” value (42° C. for 3 hours, control without polyol = 100%, listed as 25% Erythritol) was 117* % and the “% enzymatic activity” value (52° C. for 3 hours, control without polyol = 100%, listed as 1% Erythritol) was 6* %. For the same molecule, the “% enzymatic activity” value (52° C. for 3 hours, control without polyol = 100%, listed as 2.5% Erythritol) was 20* %, the “% enzymatic activity” value (52° C. for 3 hours, control without polyol = 100%, listed as 5% Erythritol) was 33* % and the “% enzymatic activity” value (52° C. for 3 hours, control without polyol = 100%, listed as 10% Erythritol) was 58* %. The “% enzymatic activity” value (52° C. for 3 hours, control without polyol = 100%, listed as 15% Erythritol) was 78* %, the “% enzymatic activity” value (52° C. for 3 hours, control without polyol = 100%, listed as 20% Erythritol) was 95* % and the “% enzymatic activity” value (52° C. for 3 hours, control without polyol = 100%, listed as 25% Erythritol) was 121* %. The “% enzymatic activity” value (62° C. for 3 hours, control without polyol = 100%, listed as 1% Erythritol) was 0%, the “% enzymatic activity” value (62° C. for 3 hours, control without polyol = 100%, listed as 2.5% Erythritol) was 0% and the “% enzymatic activity” value (62° C. for 3 hours, control without polyol = 100%, listed as 5% Erythritol) was 0%. For the same molecule, the “% enzymatic activity” value (62° C. for 3 hours, control without polyol = 100%, listed as 10% Erythritol) was 0%, the “% enzymatic activity” value (62° C. for 3 hours, control without polyol = 100%, listed as 15% Erythritol) was 0% and the “% enzymatic activity” value (62° C. for 3 hours, control without polyol = 100%, listed as 20% Erythritol) was 0%. The “% enzymatic activity” value (62° C. for 3 hours, control without polyol = 100%, listed as 25% Erythritol) was 20* %.

In the case of `OC[C@@H](O)[C@@H](O)[C@H](O)[C@H](O)CO[C@H]1O[C@H](CO)[C@@H](O)[C@H](O)[C@H]1O` [Isomalt, (2R,3R,4R,5R)-6-[[(2S,3R,4S,5S,6R)-3,4,5-Trihydroxy-6-(hydroxymethyl)-2-tetrahydropyranyl]oxy]hexane-1,2,3,4,5-pentol], the “% enzymatic activity” value (4° C., freshly made control without polyol = 100%, listed as 1% Isomalt) is reported as 105%, the “% enzymatic activity” value (4° C., freshly made control without polyol = 100%, listed as 2.5% Isomalt) is reported as 105% and the “% enzymatic activity” value (4° C., freshly made control without polyol = 100%, listed as 3% Isomalt) is reported as 106%. The “% enzymatic activity” value (4° C., freshly made control without polyol = 100%, listed as 5% Isomalt) was 107%, the “% enzymatic activity” value (4° C., freshly made control without polyol = 100%, listed as 10% Isomalt) was 106% and the “% enzymatic activity” value (4° C., freshly made control without polyol = 100%, listed as 15% Isomalt) was 101%. The “% enzymatic activity” value (4° C., freshly made control without polyol = 100%, listed as 20% Isomalt) was 102%, the “% enzymatic activity” value (42° C. for 3 hours, control without polyol = 100%, listed as 1% Isomalt) was 102* % and the “% enzymatic activity” value (42° C. for 3 hours, control without polyol = 100%, listed as 2.5% Isomalt) was 100* %. For the same molecule, the “% enzymatic activity” value (42° C. for 3 hours, control without polyol = 100%, listed as 3% Isomalt) was 100* %, the “% enzymatic activity” value (42° C. for 3 hours, control without polyol = 100%, listed as 5% Isomalt) was 99* % and the “% enzymatic activity” value (42° C. for 3 hours, control without polyol = 100%, listed as 10% Isomalt) was 107* %. For the same molecule, the “% enzymatic activity” value (42° C. for 3 hours, control without polyol = 100%, listed as 15% Isomalt) was 106* %, the “% enzymatic activity” value (42° C. for 3 hours, control without polyol = 100%, listed as 20% Isomalt) was 107* % and the “% enzymatic activity” value (52° C. for 3 hours, control without polyol = 100%, listed as 1% Isomalt) was 2%. For the same molecule, the “% enzymatic activity” value (52° C. for 3 hours, control without polyol = 100%, listed as 2.5% Isomalt) was 3%, the “% enzymatic activity” value (52° C. for 3 hours, control without polyol = 100%, listed as 3% Isomalt) was 4* % and the “% enzymatic activity” value (52° C. for 3 hours, control without polyol = 100%, listed as 5% Isomalt) was 11* %. For the same molecule, the “% enzymatic activity” value (52° C. for 3 hours, control without polyol = 100%, listed as 10% Isomalt) was 37* %, the “% enzymatic activity” value (52° C. for 3 hours, control without polyol = 100%, listed as 15% Isomalt) was 82* % and the “% enzymatic activity” value (52° C. for 3 hours, control without polyol = 100%, listed as 20% Isomalt) was 102* %. For the same molecule, the “% enzymatic activity” value (62° C. for 3 hours, control without polyol = 100%, listed as 1% Isomalt) was 0%, the “% enzymatic activity” value (62° C. for 3 hours, control without polyol = 100%, listed as 2.5% Isomalt) was 0% and the “% enzymatic activity” value (62° C. for 3 hours, control without polyol = 100%, listed as 3% Isomalt) was 0%. The “% enzymatic activity” value (62° C. for 3 hours, control without polyol = 100%, listed as 5% Isomalt) was 0%, the “% enzymatic activity” value (62° C. for 3 hours, control without polyol = 100%, listed as 10% Isomalt) was 0% and the “% enzymatic activity” value (62° C. for 3 hours, control without polyol = 100%, listed as 15% Isomalt) was 12* %. For the same molecule, the “% enzymatic activity” value (62° C. for 3 hours, control without polyol = 100%, listed as 20% Isomalt) was 6* %.
